Measurements reported in the NIST ThermoML archive (doi:10.1021/je060203o).

Details: Liquid; for speed of sound: Pulse-echo method; for mass density: Vibrating tube method

CCCCCn1cc[n+](C)c1.O=S(=O)([N-]S(=O)(=O)C(F)(F)F)C(F)(F)F
Details | mass density [kg/m3] | speed of sound [m/s]
288.15 K, 500 kPa | – | 1255.5
288.15 K, 3500 kPa | – | 1266
288.15 K, 7000 kPa | – | 1278.1
288.15 K, 10000 kPa | – | 1288.3
288.15 K, 13500 kPa | – | 1299.9
288.15 K, 16990 kPa | – | 1311.2
288.15 K, 20000 kPa | – | 1320.7
288.15 K, 30000 kPa | – | 1351.7
288.15 K, 40000 kPa | – | 1380.9
288.15 K, 50000 kPa | – | 1409
288.15 K, 60000 kPa | – | 1435.6
288.15 K, 70000 kPa | – | 1461.2
288.15 K, 80000 kPa | – | 1486
288.15 K, 90000 kPa | – | 1509.9
288.15 K, 100000 kPa | – | 1533
288.15 K, 112500 kPa | – | 1560.9
288.15 K, 125000 kPa | – | 1587.9
288.15 K, 137510 kPa | – | 1613.5
288.15 K, 150000 kPa | – | 1637.8
298.15 K, 100 kPa | 1404.45 | –
298.15 K, 500 kPa | – | 1232.1
298.15 K, 1830 kPa | 1405.67 | –
298.15 K, 3500 kPa | – | 1242.7
298.15 K, 7000 kPa | – | 1255
298.15 K, 10000 kPa | – | 1265.5
298.15 K, 10020 kPa | 1411.85 | –
298.15 K, 13500 kPa | – | 1277.3
298.15 K, 14980 kPa | 1415.45 | –
298.15 K, 16990 kPa | – | 1288.9
298.15 K, 19750 kPa | 1418.8 | –
298.15 K, 20000 kPa | – | 1298.6
298.15 K, 25860 kPa | 1422.94 | –
298.15 K, 30000 kPa | – | 1330.5
298.15 K, 31480 kPa | 1426.64 | –
298.15 K, 37770 kPa | 1430.64 | –
298.15 K, 40000 kPa | – | 1360.4
298.15 K, 44170 kPa | 1434.54 | –
298.15 K, 50000 kPa | – | 1388.9
298.15 K, 50750 kPa | 1438.46 | –
298.15 K, 59590 kPa | 1443.56 | –
298.15 K, 60000 kPa | – | 1415.9
298.15 K, 70000 kPa | – | 1441.9
298.15 K, 80000 kPa | – | 1467
298.15 K, 90000 kPa | – | 1491.1
298.15 K, 100000 kPa | – | 1514.5
298.15 K, 112500 kPa | – | 1542.6
298.15 K, 125000 kPa | – | 1569.7
298.15 K, 137510 kPa | – | 1595.7
298.15 K, 150000 kPa | – | 1620.3
299.15 K, 100 kPa | 1403.5 | –
299.15 K, 1830 kPa | 1404.78 | –
299.15 K, 10020 kPa | 1410.92 | –
299.15 K, 14980 kPa | 1414.53 | –
299.15 K, 19750 kPa | 1417.87 | –
299.15 K, 25860 kPa | 1422.01 | –
299.15 K, 31480 kPa | 1425.7 | –
299.15 K, 37770 kPa | 1429.73 | –
299.15 K, 44170 kPa | 1433.68 | –
299.15 K, 50750 kPa | 1437.64 | –
299.15 K, 59590 kPa | 1442.74 | –
300.15 K, 100 kPa | 1402.62 | –
300.15 K, 1830 kPa | 1403.85 | –
300.15 K, 10020 kPa | 1410.01 | –
300.15 K, 14980 kPa | 1413.57 | –
300.15 K, 19750 kPa | 1416.91 | –
300.15 K, 25860 kPa | 1421.12 | –
300.15 K, 31480 kPa | 1424.81 | –
300.15 K, 37770 kPa | 1428.87 | –
300.15 K, 44170 kPa | 1432.84 | –
300.15 K, 50750 kPa | 1436.83 | –
300.15 K, 59590 kPa | 1441.99 | –
301.15 K, 100 kPa | 1401.81 | –
301.15 K, 1830 kPa | 1403.07 | –
301.15 K, 10020 kPa | 1409.19 | –
301.15 K, 14980 kPa | 1412.71 | –
301.15 K, 19750 kPa | 1416.05 | –
301.15 K, 25860 kPa | 1420.19 | –
301.15 K, 31480 kPa | 1423.9 | –
301.15 K, 37770 kPa | 1427.94 | –
301.15 K, 44170 kPa | 1431.88 | –
301.15 K, 50750 kPa | 1435.89 | –
301.15 K, 59590 kPa | 1441.12 | –
302.15 K, 100 kPa | 1400.89 | –
302.15 K, 1830 kPa | 1402.16 | –
302.15 K, 10020 kPa | 1408.28 | –
302.15 K, 14980 kPa | 1411.85 | –
302.15 K, 19750 kPa | 1415.2 | –
302.15 K, 25860 kPa | 1419.36 | –
302.15 K, 31480 kPa | 1423.08 | –
302.15 K, 37770 kPa | 1427.17 | –
302.15 K, 44170 kPa | 1431.17 | –
302.15 K, 50750 kPa | 1435.18 | –
302.15 K, 59590 kPa | 1440.42 | –
303.15 K, 100 kPa | 1399.89 | –
303.15 K, 1830 kPa | 1401.18 | –
303.15 K, 10020 kPa | 1407.27 | –
303.15 K, 14980 kPa | 1410.82 | –
303.15 K, 19750 kPa | 1414.3 | –
303.15 K, 25860 kPa | 1418.46 | –
303.15 K, 31480 kPa | 1422.18 | –
303.15 K, 37770 kPa | 1426.25 | –
303.15 K, 44170 kPa | 1430.26 | –
303.15 K, 50750 kPa | 1434.31 | –
303.15 K, 59590 kPa | 1439.59 | –
308.15 K, 100 kPa | 1395.34 | –
308.15 K, 500 kPa | – | 1209.4
308.15 K, 1830 kPa | 1396.59 | –
308.15 K, 3500 kPa | – | 1220.4
308.15 K, 7000 kPa | – | 1233.1
308.15 K, 10000 kPa | – | 1243.7
308.15 K, 10020 kPa | 1402.73 | –
308.15 K, 13500 kPa | – | 1255.8
308.15 K, 14980 kPa | 1406.29 | –
308.15 K, 16990 kPa | – | 1267.5
308.15 K, 19750 kPa | 1409.65 | –
308.15 K, 20000 kPa | – | 1277.5
308.15 K, 25860 kPa | 1413.83 | –
308.15 K, 30000 kPa | – | 1310
308.15 K, 31480 kPa | 1417.59 | –
308.15 K, 37770 kPa | 1421.72 | –
308.15 K, 40000 kPa | – | 1340.4
308.15 K, 44170 kPa | 1425.82 | –
308.15 K, 50000 kPa | – | 1369.1
308.15 K, 50750 kPa | 1429.95 | –
308.15 K, 59590 kPa | 1435.35 | –
308.15 K, 60000 kPa | – | 1396.7
308.15 K, 70000 kPa | – | 1423.2
308.15 K, 80000 kPa | – | 1448.6
308.15 K, 90000 kPa | – | 1473
308.15 K, 100000 kPa | – | 1496.6
308.15 K, 112500 kPa | – | 1525.2
308.15 K, 125000 kPa | – | 1552.6
308.15 K, 137510 kPa | – | 1579
308.15 K, 150000 kPa | – | 1603.7
313.15 K, 100 kPa | 1390.55 | –
313.15 K, 1830 kPa | 1391.88 | –
313.15 K, 10020 kPa | 1397.99 | –
313.15 K, 14980 kPa | 1401.57 | –
313.15 K, 19750 kPa | 1404.95 | –
